Data set [1] concerns fish. The settings on record: fish and possibly crustacea; Halver et al 1975; cited from earlier work.
Data set [2] deals with guinea pigs. The following applies: Machlin 1976; cited from earlier work.
The test system of data set [3] is monkeys. The following applies: Machlin et al; cited from earlier work.
Data set [4] is described as follows: physchem. In kind it is physicochemical. The following applies: for Stability (% Remaining) when reacted with aqueous hydrogen peroxide / remaining at 0.25 h / remaining at 1 h / remaining at 24 h / remaining at 72 h / remaining at 144 h / remaining at 192 h / remaining at 336 h: tris buffer, hydrogen peroxide; for Stability (% Remaining) when reacted with aqueous hydrogen peroxide: pH 7; for remaining at 0.25 h / remaining at 1 h / remaining at 24 h / remaining at 72 h / remaining at 144 h / remaining at 192 h / remaining at 336 h: pH 7, Stability (% Remaining) when reacted with aqueous hydrogen peroxide. Here is the method: When ASTP and ASMP were treated under identical conditions (pH 7, 25° C.) with hydrogen peroxide for 8 days, 77% ASTP remained unreacted while 44% ASMP remained. After 14 days oxidation, 0% ASMP remained compared to 55% ASTP.
^1 Reaction mixture contained 0.05 mL of 30% aqueous hydrogen peroxid
and 200 micromoles of Lascorbate or its 2phosphorylated derivative in 100
ml of 0.05 TRIS buffer (pH 7.0). At a given reaction time, an aliquot (1
ml) of a reaction mixture containing the 2phosphorylated ester was dilute
10 fold with TRIS buffer at pH 7, and the uv absorbance of the mixture
read at 258 nm. To follow loss of Lascorbic acid, an aliquot (1 ml) of th
reaction mixture was diluted with 2% metaphosphoric acid, and the uv
absorbance read at 245 nm.

Data set [5] can be described thus: in vitro. The following applies: potato, ph 5.0 acetate buffer, pH 5. In kind it is in vitro ADME, potato. Here is the method:
(§1) It has also been confirmed that behavior of the 2-monophosphate ester of L-ascorbate, ASMP, towards the enzyme phosphatase is different than the behavior of the 2-triphopsphate ester, ASTP.
(§2) ^1 Enzymolysis was done at 25° by stirring 200 micromoles of
(§3) magnesium Lascorbate 2phosphate or ammonium Lascorbate 2triphosphate in
(§4) 100 ml of 0.05 M acetate buffer (pH 5.0) containing about 400 mg of
(§5) bakers' compressed yeast and 2 units of phosphatase (1 unit activity
(§6) hydrolyzes 1 μmole of pnitrophenyl phosphate at pH 4.8 and 37°)
(§7) At a given reaction time, an aliquot (5 ml) was removed, mixed with 5.0 m
(§8) of 12% trichloroacetic acid/4% metaphosphoric acid, and the mixture
(§9) filtered. An aliquot (5 ml) of the filtrate was titrated with
(§10) 2,6dichlorophenolindophenol to a pink endpoint. Blank solutions contained
(§11) all reagents except phosphatase.

Data set [6] relates to Acid Phosphatase from Potato. As to the kind of experiment: in vitro. Type of data set: in vitro ADME. On the procedure:
as §1, §2, §3, §4, §5, §6, §7, §8, §9, §10, §11

Data set [7] can be described thus: in vitro. In kind it is in vitro ADME, wheat. The following applies: wheat, wheat flour suspension, pH 5. On the procedure: (§12) When stirred with a dilute suspension of wheat flour at 25° C., ASMP was comletely hydrolyzed in 1 hr. whereas ASTP required approximately 10-20 hr. for 95% hydrolysis.
(§13) ^1 Enzymolysis and titration of Lascorbate released were done as
(§14) described in the footnote to Table I, except the phosphatase was that
(§15) present in wheat flour. Two grams of wheat flour was used in the 100 ml
(§16) enzymolysis reaction mixture.

Data set [8] has as its system phosphatase present in wheat flour. Kind of data set: in vitro. In kind it is in vitro ADME. On the procedure: as §12, §13, §14, §15, §16
Data set [9] in a line: Blank reactions without phosphatase: acid-catalyzed release of L-ascorbate in pH 5.0 acetate buffer. The following applies: 0.05 m acetate buffer, 25°, read-out: L-Ascorbate Released (%), Blank; for degraded at 0.25 h: reaction time 0.25 h; for degraded at 0.5 h: reaction time 0.50 h; for degraded at 1 h: reaction time 1.0 h; for degraded at 2 h: reaction time 2.0 h; for degraded at 3 h: reaction time 3.0 h; for degraded at 4 h: reaction time 4.0 h; for degraded at 8 h: reaction time 8.0 h; for degraded at 20 h: reaction time 20.0 h; for degraded at 5 h: reaction time 5.0 h. In kind it is physicochemical.

A short description of data set [10]: Stabilization of L-ascorbate against autoxidation in aqueous medium at pH 7. In kind it is physicochemical.
Data set [11] has as its system guinea pigs. As to the kind of experiment: Guinea pig feeding study of vitamin C activity. In kind it is in vivo. The settings on record: 15.4 mg per kg of body weight per day orally, equivalent to 5.0 mg of L-ascorbic acid.
Description: English short-hair guinea pigs were housed individually in a cage and fed Purina guinea pig ration during a one-week acclimation period. The young pigs (190-250 g) were divided into four groups of 10 animals each. One group was fed a diet devoid of vitamin C (Reid-Briggs guinea pig diet, U.S. Biochemicals, Cleveland, Ohio); the second group received the same diet but supplemented with 5.0 mg of L-ascorbic acid per kg of body weight per day; the third group received 15.4 mg of purified tetrasodium L-ascorbate 2-triphosphate dihydrate (L-ascorbate 2-tri-PO4, purified) per kg of body weight per day; and the fourth group received 15.4 mg of tetra-sodium L-ascorbate 2-triphosphate dihydrate (L-ascorbate 2-tri-PO4, reaction mixture) in admixture with the by-products of the reaction mixture as set forth in Example I, except the small amount of unreacted L-ascorbic acid in the reaction mixture was destroyed by O2 -oxidation (the 15.4 mg of tetrasodium L-ascorbate 2-triphosphate dihydrate is equivalent to 5.0 mg of L-ascorbic acid). The vitamin C was administered orally with a calibrated syringe from solutions kept at 5° C., except the L-ascorbic acid solution was prepared fresh daily. The weights of the animals were recorded daily, and the arithmetic means of each group were calculated and compared in the FIGURE.
The mark [12] stands for this setting: pH 5, Table I, all reagents except phosphatase.
The mark [13] stands for this setting: pH 5, Table II, blank without phosphatase (wheat flour).

SMILES strings stand for the structures. Like-named read-outs stand apart in the source and are kept apart here.

Consider `O=C1O[C@H]([C@@H](O)CO)C(O)=C1OS(=O)(=O)O` [2-sulfate ester], for which the “vitamin C activity” value in data set [1] was “it is in fish”; in [2] it was “not an active source of vitamin C”; in data set [3], “not an active source of vitamin C”.

For the compound `O=C1O[C@H]([C@@H](O)CO)C(O)=C1OP(=O)(O)O` [ASMP, L-Ascorbate 2-phosphate], the “Stability (% Remaining) when reacted with aqueous hydrogen peroxide” value in data set [4] (192 h) is 44.1%. In [4], the share remaining (in general, the share of the starting amount still present when the sample was taken) at 0.25 h came out at 98.7%; the fraction remaining at 1 h was 97.1%; the amount remaining at 24 h turned out to be 93.9%; the fraction remaining at 72 h came to 77.7%. Moreover, in [4], the amount remaining at 144 h worked out at 64.1%, the share remaining at 192 h turned out to be 44% and the share remaining at 336 h is 0%. In addition, in data set [5], the metabolised at 0.25 h is 9.3%, the metabolised at 0.5 h worked out at 18.6%, the metabolised at 1 h came out at 35.5% and the metabolised at 2 h turned out to be 60.5%. In data set [5], this compound had a metabolised at 3 h of 77.3%, a metabolised at 4 h of 88.4%, a metabolised at 8 h of 100% and a metabolised at 20 h of 100%. In data set [6], the “rate of release of L-ascorbic acid when treated with purified phosphatase from potato (comparison in words)” value is “much faster than ASTP”. In data set [7], this compound yielded a metabolised at 0.25 h of 47.1%, a metabolised at 0.5 h of 76.2%, a metabolised at 1 h of 100% and a metabolised at 2 h of 100%. For the same compound, in data set [7], the metabolised at 3 h was found to be 100%, the metabolised at 4 h worked out at 100%, the metabolised at 5 h was 100% and the metabolised at 20 h is 100%. The “time to complete hydrolysis” value in data set [8] is 1 h. For the same compound, in data set [9] (setting [12]), the degraded at 0.25 h worked out at 0%, the degraded at 0.5 h was 0%, the degraded at 1 h worked out at 0% and the degraded at 2 h came out at 2.9%. For the same compound, in [9] (setting [12]), the degraded at 3 h was 4.6%, the degraded at 4 h was 4.6%, the degraded at 8 h came out at 8.1% and the degraded at 20 h was roughly 15%. For the same compound, in data set [9] (setting [13]), the degraded at 0.25 h turned out to be 0%, the degraded at 0.5 h worked out at 0%, the degraded at 1 h was determined as 0% and the degraded at 2 h was 2.9%. For the same compound, in data set [9] (setting [13]), the degraded at 3 h is 4.6%, the degraded at 4 h was 4.6%, the degraded at 5 h amounted to 5.8% and the degraded at 20 h amounted to 14.5%.

Turning to `O=C1O[C@H]([C@@H](O)CO)C(O)=C1OP(=O)(O)OP(=O)(O)OP(=O)(O)O` [ASTP, L-ascorbate 2-triphosphate], in data set [10], the “stabilization of L-ascorbate against autoxidation by the substance” value is recorded as “L-ascorbate is stabilized against autoxidation by ASTP”. Besides, in data set [4], the “stability to oxidation compared with ASMP” value was “more stable to oxidation than ASMP”, the fraction remaining at 0.25 h amounted to 98.6%, the amount remaining at 1 h was found to be 98.3% and the amount remaining at 24 h was 96.7%. In data set [4], this compound yielded a fraction remaining at 72 h of 87.6%, a fraction remaining at 144 h of 83.3%, an amount remaining at 192 h of 77% and a fraction remaining at 336 h of 55%. Further, the “Stability (% Remaining) when reacted with aqueous hydrogen peroxide” value in [4] (336 h) is 55.2%. In data set [5], this compound came in with a metabolised at 0.25 h of 0%, a metabolised at 0.5 h of 0%, a metabolised at 1 h of 0% and a metabolised at 2 h of 0%. In [5], this compound showed a metabolised at 3 h of 0.4%, a metabolised at 4 h of 0.8%, a metabolised at 8 h of 3.5% and a metabolised at 20 h of 8.5%. Further, in data set [7], the metabolised at 0.25 h was found to be 0%, the metabolised at 0.5 h came to 1.2%, the metabolised at 1 h is 3.5% and the metabolised at 2 h was 29.6%. Also, in data set [7], the metabolised at 3 h came to 65.8%, the metabolised at 4 h is 86.9%, the metabolised at 5 h was determined as 93.1% and the metabolised at 20 h worked out at 95%. Further, in [8], the “time required for 95% hydrolysis” value was 10 to 20 h. For the same compound, in [9] (setting [12]), the degraded at 0.25 h was 0%, the degraded at 0.5 h was 0%, the degraded at 1 h was determined as 0% and the degraded at 2 h is 0%. In data set [9] (setting [12]), the degraded at 3 h was determined as 0%, the degraded at 4 h was found to be 0%, the degraded at 8 h was 0% and the degraded at 20 h is 0%. Besides, in data set [9] (setting [13]), the degraded at 0.25 h amounted to 0%, the degraded at 0.5 h was 0%, the degraded at 1 h is 0% and the degraded at 2 h came to 0%. Further, in [9] (setting [13]), the degraded at 3 h was determined as 0%, the degraded at 4 h worked out at 0%, the degraded at 5 h worked out at 0% and the degraded at 20 h amounted to 0%.

As for `O.O.O=C1O[C@H]([C@@H](O)CO)C([O-])=C1OP(=O)([O-])OP(=O)([O-])OP(=O)([O-])O.[Na+].[Na+].[Na+].[Na+]` [L-ascorbate 2-tri-PO4, purified, tetrasodium L-ascorbate 2-triphosphate dihydrate], in [11], the “growth rate (mean body weight) compared with group fed equivalent L-ascorbic acid” value is listed as “grew at a rate equal to that of the group fed an equivalent amount of L-ascorbic acid”.

For `O=C1O[C@H]([C@@H](O)CO)C(O)=C1O` [Parent Compd, L-ascorbic acid], in data set [4] (pH 7, 25° C.), the “time to destruction by hydrogen peroxide” value is given as “destroyed in less than one hour”. Besides, in data set [4], the amount remaining at 0.25 h amounted to 56.9%, the share remaining at 1 h was determined as 0%, the amount remaining at 24 h was 0% and the fraction remaining at 72 h was 0%. In [4], this compound returned a fraction remaining at 144 h of 0%, a fraction remaining at 192 h of 0% and a fraction remaining at 336 h of 0%.

(Values after patent US4647672A, “Ascorbate 2-polyphosphate esters and method of making same” (priority 1985, dated 1987).)
